Measurements published in patent publication US11470844B2, “Vespidae wasp repellent” (KINP CO., LTD, priority 2015, dated 2022).

What was measured:
Format in all cases: in vivo
[1] = tested on: P. chinensis antennalis Pe'rez worker group; experiment: Spray on worker group on nest; details: 9:02, 1 minute after spraying benzyl alcohol; 32 workers before
Experimental: The experiment involving a worker group of Polistes jokahamae jokahamae Radoszkowski on the exterior wall of a nest found in the campus of Faculty of Agriculture, Kochi University, located on 200 Otsu, Monobe, Nankoku City, Kochi Prefecture, was conducted on Jul. 13, 2015, and the experiment involving a worker of P. jokahamae jokahamae Radoszkowski which collected sap bled from sucking mark by adult Cryptotympana facialis of Zelkova tree stem planted in a private house in Fuseishi-cho, Takamatsu City, Kagawa Prefecture was conducted on July 19 to 22, 2015. In addition, the experiment involving a worker group of P. chinensis antennalis Pe'rez on the exterior wall of a nest found on a branch of a cheesewood planted at a bank of Noda pond located at Fuseishi-cho, Takamatsu City, Kagawa Prefecture was conducted on Jul. 30, 2015.
The experiment was conducted in accordance with the above-described Example 1(1) involving a Vespa mandarinia worker, distilled water as a control example spray and benzyl alcohol as a test liquid example spray were sequentially sprayed on a test object group or a test object worker by using a sprayer, and the behavior from immediately after spraying up to 1 minute later was respectively recorded. […]

[2] = tested on: Vespa crabro flavofasciata; experiment: Grape juice attraction trap set outside
Experimental: The inventors conducted the experiment at four places in Kagawa Prefecture Kinbuchi Forest Park. The experiment was conducted totally 4 times from Oct. 11 to Nov. 4, 2013, from Nov. 4 to Dec. 7, 2013, from Oct. 1 to Oct. 31, 2014, and from Oct. 31 to Dec. 9, 2014.
First, four 2 cm square holes were opened on the side of a 2 L capacity PET bottle, and 500 mL of grape juice was added thereto to prepare a control attraction trap to kill a Vespidae worker. As Test liquid example, 25 mL, 5 mL or 1 mL of 2-phenylethanol was added to the grape juice of the traps. […] Since all of the test sites were low mountainous and sloping areas and had many trees, each trap had to be suspended from the branch of live trees. As a result, the horizontal distances between a pair of control example trap and test liquid example trap could not be adjusted to the same, and the distance was from 1 m to 8.5 m. There were not only Vespidae worker but also male Vespidae among the killed Vespidae wasps in the attraction traps; however, the results of the control example and test liquid example were compared on the basis of the number of the killed Vespidae worker, since a Vespidae worker causes a stabbing accident and plays an important role in building a nest. In Table 8, “*” indicates the case where there is a significant difference at p<0.01 in the χ^2 test to which the correction of Yates is applied, and “**” indicates the case where there is a significant difference at p<0.001 in the same test. The result of the first experiment in 2013 is shown in Table 9, the result of the second experiment in 2013 is shown in Table 10, the result of the first experiment using 1% 2-phenylethanol in 2014 is shown in Table 11, the result of the second experiment in 2014 is shown in Table 12, the result of the first experiment using 0.1% 2-phenylethanol in 2014 is shown in Table 13, and the result of the second experiment in 2014 is shown in Table 14. In Tables 9 to 14, “*” indicates the case where there is a significant difference at p<0.05 in the t-test, “**” indicates the case where there is a significant difference at p<0.01 in the same test, and “***” indicates the case where there is a significant difference at p<0.001 in the same test.
In the first experiment and second experiment, the trap prepared by adding 25 mL of 2-phenylethanol to 500 mL of grape juice was used as the test liquid example of 5% 2-phenylethanol.
In the first experiment and second experiment, 10 traps prepared by adding 5 mL of 2-phenylethanol to 500 mL of grape juice and 10 traps prepared by adding 0.5 mL of 2-phenylethanol to 500 mL of grape juice were used respectively as the 2 kinds of test liquid examples of 1% 2-phenylethanol and 0.1% 2-phenylethanol to conduct the experiment.

[3] = tested on: Vespa simillima xanthoptera Cameron worker; experiment: Black ball nest disturbance, Experiment 1; details: previously attacked ball
Experimental: The experiment was also conducted with utilizing a nest of Vespa simillima xanthoptera Cameron in Kagawa Prefecture Kinbuchi Forest Park in Takamatsu City Kagawa Prefecture on Oct. 24, 2014. Since the nest was also built in the ground, the nest could not be found except for the entrance thereof.
As the above-described Example 2(1), the nest entrance was disturbed by vibrating the black ball in contact with the nest entrance for about 10 seconds. The total number of attacking worker could not be counted, since the number of the worker which attacked to the control black ball using distilled water was much larger than that of the control in the experiment for Vespa mandarinia and the worker moved very rapidly. Thus, the video image was stopped every 30 seconds from the end of the nest entrance disturbance and the number of the worker which alighted on the hemispherical surface of the black ball for attack was counted. During 120 seconds for the experiment, the workers continued to strongly attack to the black ball as the workers constantly flew to and alighted on the black ball for attack and the worker number was not decreased. Such an attack was continued even after the end of the experiment at which the tip of the rod was moved to a place 5 m or more away from the nest, and the attack was finally not observed after about 20 minutes passed from the experiment was finished. Then, 2-phenylethanol was sprayed on the black ball to which Vespa simillima xanthoptera attacked as the test liquid example and the nest entrance was disturbed using the black ball. Although the worker which tried to come close to the black ball was observed, even the closest worker changed the direction in the air 10 to 20 cm from the surface of the black ball and flew away, and no worker which flew to and alighted on the surface of the black ball was found.

[4] = 0.1% 2-phenylethanol trap, first experiment 2014, 10 traps
[5] = 0.1% 2-phenylethanol trap, second experiment 2014, 10 traps
[6] = 1% 2-phenylethanol trap, first experiment 2014, 10 traps
[7] = 1% 2-phenylethanol trap, second experiment 2014, 10 traps
[8] = 5% 2-phenylethanol trap, first experiment 2013, 18 traps
[9] = 5% 2-phenylethanol trap, second experiment 2013, 18 traps

Row | SMILES | Number of P. chinensis antennalis Pe'rez on nest [1] | Total number of killed worker (Average ± SD), Vespa crabro flavofasciata [2, 4] | Total number of killed worker, Vespa crabro flavofasciata [2, 4] | Total number of killed worker (Average ± SD), Vespa crabro flavofasciata [2, 5] | Total number of killed worker, Vespa crabro flavofasciata [2, 5] | Total number of killed worker (Average ± SD), Vespa crabro flavofasciata [2, 6] | Total number of killed worker, Vespa crabro flavofasciata [2, 6] | Total number of killed worker (Average ± SD), Vespa crabro flavofasciata [2, 7] | Total number of killed worker, Vespa crabro flavofasciata [2, 7] | Total number of killed worker (Average ± SD), Vespa crabro flavofasciata [2, 8] | Total number of killed worker, Vespa crabro flavofasciata [2, 8] | Total number of killed worker (Average ± SD), Vespa crabro flavofasciata [2, 9] | Total number of killed worker, Vespa crabro flavofasciata [2, 9] | number of worker alighted on hemispherical surface of black ball for attack ([3]; 30 s after disturbance) | number of worker alighted on hemispherical surface of black ball for attack ([3]; 60 s after disturbance) | number of worker alighted on hemispherical surface of black ball for attack ([3]; 90 s after disturbance) | number of worker alighted on hemispherical surface of black ball for attack ([3]; 120 s after disturbance)
1 | OCc1ccccc1 [Benzyl alcohol, benzyl alcohol] | 0 |  |  |  |  |  |  |  |  |  |  |  |  |  |  |  | 
2 | OCCc1ccccc1 [2-Phenylethanol, 2-phenylethanol] |  | (1.50 ± 1.27) | 15 | (0.00 ± 0.00) | 0 | (0.00 ± 0.00) | 0 | (0.00 ± 0.00) | 0 | (0.00 ± 0.00) | 0 | (0.00 ± 0.00) | 0 | 0 | 0 | 0 | 0
